# In US20150342961A1, “USE OF PROSTAGLANDIN E1 (PGE1) AND MISOPROSTOL FOR TREATING CHRONIC MYELOGENOUS/MYELOID LEUKEMIA (CML)” (priority 2014, published 2015):
# “Also recorded” adds a separate entry of the source. Counter-ions that a name gives are not always drawn.
# Columns and labels:
# LSCs [1] = experiment: Screen of drugs simulating Tcf1 and Lef1 elimination, effect on LSCs
# Description: (§1) In view of the Inventor's discovery, the Inventor set out to screen for drugs that would simulate the effect of eliminating Tcf1 and Lef1 for use in treatment of CML. Inventor experimented with the following drugs which are known to at least partly simulate the effect of eliminating Tcf1 and Lef1: Carbimazole, Cinchonine, Gibberellic acid, Hippeastrine hydrobromide, Dimaprit dihydrochloride, Spaglumic acid, and Vigabatrin. […] Inventor further experimented with Trichostatin A and Vorinostat. […] Inventor thereafter turned to prostaglandins for treating CML.
# HSCs = tested on: HSCs
# Description: as §1
# CML = experiment: Screen of drugs simulating Tcf1 and Lef1 elimination, effect on CML
# Description: as §1
# CML mouse model = experiment: CML mouse model, survival of primary recipients after BMT; assay type: in vivo; settings: for survival rate at about day 35 / time mice survived after bone marrow transplantation (BMT) before survival declined: 2.5 mg/kg daily, days 8-36 post-BMT
# Procedure: Bone marrow cells (BM) were isolated from donor mice, and HSCs were enriched and delivered the BCR-ABL gene using retroviral transduction. The BM cells were then transplanted into another group of recipient mice (called primary recipients here). The recipients will develop CML because the donor HSCs are transformed by BCR-ABL. On day 8 after BM transplantation (BMT), the primary recipients were treated with DMSO (the solvent to dissolve PGE1 or PGE2), PGE1, PGE2, Imatinib or both PGE1 and Imatinib. The survival of the recipients was monitored.
# CML was established as in FIG. 5. During days 8-36 post-bone marrow transplantation (BMT), the recipients were treated daily with 2.5 mg/kg body weight PGE1 or PGE2, or the vehicle DMSO. Statistical significance was determined by log-rank test. Data are pooled results from 2 independent experiments with a total of 10 CML recipients tested under each condition.
# CML was established as in FIG. 5. During days 8-80 post-BMT, the recipients were treated daily with Imatinib alone (100 mg/kg body weight, b.i.d.) or in combination with PGE1 (2.5 mg/kg body weight). Statistical significance was determined by log-rank test. Data are pooled results from 2 independent experiments with a total of 9-10 CML recipients tested under each condition.
# (§2) CML animals were treated with the solvent dimethyl sulfoxide (DMSO) as a negative control (See FIG. 6).
# LSCs [2] = experiment: LSCs from treated primary recipients transplanted into secondary recipients, propagation of CML; assay type: in vivo, mouse; settings: secondary recipients untreated
# Procedure: The CML model was established in the primary recipients as in FIG. 5. The recipients were then treated with Imatinib, PGE1 or Misoprostol alone, or in combination during days 8-21 post-BMT. The LSCs were isolated from the BM of the primary recipients and transplanted into another set of secondary recipients. The ability of LSCs to propagate CML in the secondary recipients were tracked.
# Note that the LSCs were only treated with PGE1 or Misoprostol in the primary recipients for 2 weeks, and none of the secondary recipients were treated.
# as §2
smiles,measurement,setting,value
O=C(CCCCCCC(=O)Nc1ccccc1)NO [Vorinostat],effect on LSCs,LSCs [1],strong effect on LSCs
same,toxicity to HSCs,HSCs,toxic to HSCs
CN(C)CCCSC(=N)N [Dimaprit dihydrochloride],effect on CML,CML,no effect on CML
CCOC(=O)n1ccn(C)c1=S [Carbimazole],effect on CML,CML,no effect on CML
CN1CCC2=C[C@H](O)[C@H]3OC(=O)c4cc5c(cc4[C@H]3[C@@H]21)OCO5 [Hippeastrine hydrobromide],effect on CML,CML,no effect on CML
Cc1ccc(NC(=O)c2ccc(CN3CCN(C)CC3)cc2)cc1Nc1nccc(-c2cccnc2)n1 [Imatinib],effect of Imatinib or co-therapy on survival of CML recipients,"CML mouse model; Imatinib 100 mg/kg b.i.d. alone or with PGE1 2.5 mg/kg, days 8-80 post-BMT",substantially extend the survival; also recorded: extended the survival of CML mice
same,day after BMT at which all CML mice had died,"CML mouse model; Imatinib 100 mg/kg b.i.d., days 8-80 post-BMT",~62 days
same,day after secondary BMT at which secondary recipients died,LSCs [2]; LSCs treated in primary recipients days 8-21 post-BMT,~40 days
C=C[C@H]1C[N@@]2CC[C@H]1C[C@@H]2[C@@H](O)c1ccnc2ccccc12 [Cinchonine],effect on CML,CML,no effect on CML
C=CC(N)CCC(=O)O (stereo not drawn) [Vigabatrin],effect on CML,CML,no effect on CML
"CCCCC[C@H](O)/C=C/[C@H]1[C@H](O)CC(=O)[C@@H]1C/C=C\CCCC(=O)O [PGE2, Prostaglandin E2]",survival rate at about day 35,CML mouse model; CML mice,about 10%
same,time mice survived after bone marrow transplantation (BMT) before survival declined,CML mouse model; CML mice,approximately 17 days
CC(/C=C/C(=O)NO)=C\[C@@H](C)C(=O)c1ccc(N(C)C)cc1 [Trichostatin A],effect on LSCs,LSCs [1],strong effect on LSCs
"CCCCC[C@H](O)/C=C/[C@H]1[C@H](O)CC(=O)[C@@H]1CCCCCCC(=O)O [PGE1, Prostaglandin E1]",survival rate at about day 35,CML mouse model; CML mice,~50%
same,time mice survived after bone marrow transplantation (BMT) before survival declined,CML mouse model; CML mice,approximately 17 days
same,greater survival rate compared to the PGE2 mice,"CML mouse model; CML mice, about day 35",~400%
same,ability of treated LSCs to propagate CML in secondary recipients,LSCs [2]; two-week treatment in primary recipients,superior to Imatinib treatment; also recorded: much less efficient in propagating CML
C=C1C[C@]23C[C@@]1(O)CC[C@H]2[C@@]12C=C[C@H](O)[C@@](C)(C(=O)O1)[C@H]2[C@@H]3C(=O)O [Gibberellic acid],effect on CML,CML,no effect on CML
